These results are taken from patent US4225611A, “Novel n-substituted benzenesulfonamide, process for its preparation and medicaments containing it” (Choay S.A., priority 1977, dated 1980).

Data set [1] can be described thus: acute toxicity in the rat, by the oral route. As to conditions: in vivo, single dose. The source says:
The acute toxicity is expressed by the lethal dose 50, that is to say the dose resulting in the death of 50% of the animals.
This study has been carried out on groups of 10 Swiss male mice whose weight varied from 24 to 26 g, and on groups of six Wistar male rats of 120 to 125 g.
The administration was made in a single dose by the oral route in the rats and the mice, and also by the intravenous route in the case of the mice.

The test system of data set [2] is acetyl salicylic acid ulcer. The data set is described as follows: anti-ulcer activity: acetyl salicylic acid ulcer. It is filed as in vivo, rat. As to conditions: 50 mg/kg oral, 1 hour before 50 mg/kg AAS oral; sacrifice 24 hours later; versus controls. The method, then:
(§1) The compound according to the invention was studied for its preventive properties with respect to ulcers generated by various means. Thus the ratio in the reduction of gastric attacks caused by acetyl salicylic acid and phenylbutazone was determined, as well as the ratio in the reduction of stress ulcers and SHAY ulcers, or again vasomotor reactions to polymyxine B.
(§2) For these tests, male Wistar rats were used (from 250 to 350 g according to the test). For each test and each dose, 10 animals at least were treated.
(§3) In the case of acetyl salicylic acid (AAS) and of phenylbutazone, the test procedure was as follows:
(§4) administration by the oral route of 50 mg/kg of the compound in aqueous solution with 3% of gum arabic after 23 hours fasting;
(§5) initiation of ulcerogenesis 1 hour later, by the administration of 50 mg/kg of AAS by the oral route or of 100 mg/kg of phenylbutazone by the intraperitoneal route;
(§6) sacrifice of the animals 24 hours later and examination of the gastric mucous membrane.
(§7) The control animals only received AAS or phenylbutazone.
(§8) In all the preceding tests, the results were obtained by examination of the gastric mucous membrane to determine the presence either of a congested area, or of more or less serious ulcerations.
(§9) Study of the levels of reduction of attacks in the treated animals, with respect to the controls, was effected by the method of O. FOUSSARD and G. […]

Another data set relates to phenylbutazone ulcer. The data set is described as follows: anti-ulcer activity: phenylbutazone ulcer. It is filed as in vivo, rat. Conditions: 50 mg/kg oral, 1 hour before 100 mg/kg phenylbutazone intraperitoneal; sacrifice 24 hours later; versus controls. The method, then:
as §1, §2, §3, §4, §5, §6, §7, §8, §9

For another data set, the system named is stress ulcer. Kind of data set: anti-ulcer activity: stress ulcer (total immobilization). It is filed as in vivo, rat. Conditions: 50 mg/kg oral, 1 hour before 18 hours immobilization; versus controls. The method, then: as §1, §2
For the stress ulcer, the rats, 1 hour after having received 50 mg/kg of the product according to the invention by the oral route, were totally immobilized for 18 hours in a cylindrical wire cage, according to the technique of ROSSI (C.R. Soc. Biol., 1956, 150, 2124-2126) and BONFILS (C.R. Soc. Biol., 1957, 151, 1149-1150). They were then sacrificed and examined.
as §8
(§10) Study of the levels of reduction of attacks in the treated animals, with respect to the controls, was effected by the method of O. FOUSSARD and G. […] (Therapie, 1972, 27, 705-721) applying the formula of J. M. LWOFF (J. Pharmacol., 1971, 2, 1, 81-83).

The next data set concerns SHAY ulcer. Kind of data set: anti-ulcer activity: SHAY ulcer (ligature of the pylorus). Conditions: 100 mg/kg oral, 1 hour before ligature of the pylorus, versus controls. In kind it is in vivo, rat. The method, then: as §1, §2
The SHAY ulcer was produced in the fasting rat after 48 hours. 47 hours after the beginning of the fast, by the oral route, 100 mg/kg of the product to be tested was administered, then, 1 hour later, ligature of the pylorus was effected after light anesthesia with ether. The sacrifice of the animals took place 12 to 24 hours after the ligature.
as §8, §10

In data set [3] the test system is vasomotor lesions and hemorhagia of the glandular portion of the stomach. The data set is described as follows: anti-ulcerogenic action against polymyxine B vasomotor lesions. In kind it is in vivo, rat. Conditions: 100 mg/kg oral before 1.5 mg/kg polymyxine B intraperitoneal; sacrifice two hours later; 15 rats versus 15 controls. The method, then:
as §1, §2
In the tests with polymyxine B, 100 mg/kg of the compound according to the invention was administered by the oral route before the intraperitoneal injection of 1.5 mg/kg of polymyxine B, then, two hours later after this last injection, the rats were sacrificed. The injection of polymyxine B has the effect of causing vasomotor lesions and hemorhagia of the glandular portion of the stomach. It is by measurement of the extent of these lesions that the anti-ulcerogenic action of the compound was determined (A. BELL and Coll., Biologie et gastro-enterologie, 1969, 2, 117-126-Suppt. No. 2 aux Archives francaises des maladies de l'appareil digestif, 1969, 58, 10-11, October-November).

The LD50 is the dose at which mortality reaches 50%. A low value points to a more toxic substance. Consider `CCN1CCCC1CNS(=O)(=O)c1cc(Cl)c(N)cc1OC` (stereo not shown) [(I), chloro-5 methoxy-2 amino-4 N-(N-ethyl methyl-2 pyrrolidino) benzenesulfonamide], for which the median lethal dose (LD50) in data set [1] is 1500 mg/kg. The “level of reduction of attacks, acetyl salicylic acid ulcer” value in data set [2] was determined as 40.0%. In addition, the “level of reduction of attacks, phenylbutazone ulcer” value with phenylbutazone ulcer was 46.9%. Besides, in the data set with stress ulcer, the “level of reduction of attacks, stress ulcer” value came out at 50.8%. Besides, the “level of reduction of attacks, SHAY ulcer, after 12 hours of ligature” value in the data set with SHAY ulcer (12 hours of ligature) came to 60.4%. Besides, in the data set with SHAY ulcer (24 hours of ligature), the “level of reduction of attacks, SHAY ulcer, after 24 hours of ligature” value came to 46.1%. The “reduction in the lesions (polymyxine B)” value in data set [3] is roughly 63%.
